Assay results as given in patent US20250296942A1, “Phosphonate-Based Coordination Complexes and Methods of Preparation and Use Thereof” (University of Puerto Rico, priority 2021, published 2025).
Where two headings read alike, the source gives them in different places.

How the values were obtained:
[1] = FaSSGF pH 1.60
[2] = AlamarBlue cytotoxicity, RISE and nano-Ca@RISE, hFOB 1.19; format: cell-based, human; details: human, hFOB 1.19 osteoblast cells, hFOB 1.19, read-out: Relative cell viability (% RCL)
Protocol: (§1) Cell culture methods. The MDA-MB-231 cell line was incubated with DMEM, 1% Pen-Strep, and 10% FBS at 37° C. in 5% CO2. The hFOB 1.19 cell line was incubated with 1:1 DMEM:F-12, 0.3 mg/mL G418, and 10% FBS at 34° C. in 5% CO2. Cell passages were performed weekly at 80% of cell confluency, media was exchanged twice a week.
(§2) Cell treatments. Both cell lines were treated with RISE (control) and nano-Ca@RISE (experimental). […]. Both cell lines (MDA-MB-231 and hFOB 1.19) were seeded in 96 well plates at 2.5×10^5 cell/mL. The cells were incubated for 24 h at 37° C. (MDA-MB-231) and 34° C. (hFOB 1.19), respectively. After the initial incubation period, both cell lines were treated with 100 μL of the RISE solutions previously prepared, and incubation was performed for 24, 48, and 72 h at the respective incubation temperatures. For both cell lines, media (MDA-MB-231: DMEM, Pen-Strep) and (hFOB 1.19: DMEM, F-12, G418) were used with control groups. AlamarBlue® assay was utilized to determine cell proliferation, for this, 10% of AlamarBlue® solution in PBS was prepared. Finally, the media was removed from the 96 well plates, 100 μL of 10% AlamarBlue® solution was added, and the cells were incubated for 4 h at the same previously mentioned conditions. After the AlamarBlue® assay, the fluorescence (λexc=560 nm, λem=590 nm) was evaluated employing an Infinite M200 PRO Tecan Microplate Reader. […]. The nonlinear regression method using Graph Pad Prism 8 was applied to fit the dose-response curves (% cell live vs concentration) and determined the IC50 values for RISE.
(§3) […]. Treatments at these concentrations were carried out at 24, 48, and 72 h for RISE and nano-Ca@RISE. The cell seeding and AlamarBlue® assay were completed as described above for the IC50 determination in both cell lines. […]. All experiments were performed in triplicates and the data was statistically treated using mean, standard deviation, and the coefficient of variation percentage (% CV).
(§4) Cell culture methods for the hFOB 1.19 cell line. This cell line was grown in 1:1 mixture of Ham's F12 Medium Dulbecco's Modified Eagle's Medium accompanied with 10% FBS and 0.3 mg/ml of geneticin (G418), incubated at 34° C. in 5% CO2. Cell passage and cell treatment were performed at 80% of cell confluency. The completed growth media was exchanged every two days.
(§5) Cell seeding. The MDA-MB-231 and hFOB 1.19 cell lines were seeded in 96 well plates at a density of 2.5×10^5 cells/mL, incubation was carried out for 24 h at 37° C. for MDA-MB-231 and 34° C. for osteoblast hFOB 1.19, in 5% CO2. The experiments were conducted in triplicates, three 96 well plates were made for each treatment period (24, 48, and 72 h).
(§6) Cell treatment. To determine the half-maximal inhibitory concentration (IC50), for both cell lines, two-fold serial dilutions of RISE (0-200 μM) were prepared. To assess the relative cell live (% RCL) were employed selected […] (50, 45, 40, and 35 μM) of RISE and nano-Ca@RISE for MDA-MB-231 and hFOB 1.19 cell lines. For this, after the seeding, 100 μL of RISE and nano-Ca@RISE were used to treat the cells. The control groups were treated with just media. Both cell lines were incubated for 24, 48, and 72 h after RISE and nano-Ca@RISE solutions were added.
(§7) AlamarBlue@assay. For both cell lines, after the 24, 48, and 72 h of treatment, the media was removed from the 96 well plates. Subsequently, 100 μL of 10% AlamarBlue® solution was added and incubation was carried out for 4 h. The fluorescence (λexc=570 nm, λem=590 nm) was measured employing an Infinite M200 PRO Tecan Microplate Reader. […]. The IC50 curves and the % RCL values were plotted using the Graph Pad Prism 8 program.

[3] = tested on: normal osteoblast-like hFOB 1.19 cell line; assay: as above; format: cell-based, human; details: for IC50: Homo sapiens
Protocol: as §1, §2, §3, §4, §5, §6, §7

[4] = PBS pH 7.40
[5] = tested on: human breast cancer MDA-MB-231 cell line; details: previously reported; cited from earlier work

Structure (SMILES) | time to reach maximum dissolution [1] | viability at 24 h, 35 µM ([2]; 35 μM, 24 h) | viability at 48 h, 35 µM ([2]; 35 μM, 48 h) | viability at 72 h, 35 µM ([2]; 35 μM, 72 h) | viability at 24 h, 40 µM ([2]; 40 μM, 24 h) | viability at 48 h, 40 µM ([2]; 40 μM, 48 h) | viability at 72 h, 40 µM ([2]; 40 μM, 72 h) | viability at 24 h, 45 µM ([2]; 45 μM, 24 h) | viability at 48 h, 45 µM ([2]; 45 μM, 48 h) | viability at 72 h, 45 µM ([2]; 45 μM, 72 h) | viability at 24 h, 50 µM ([2]; 50 μM, 24 h) | viability at 48 h, 50 µM ([2]; 50 μM, 48 h) | viability at 72 h, 50 µM ([2]; 50 μM, 72 h) | IC50 ([3]; 24 h) | IC50 ([3]; 48 h) | IC50 ([3]; 72 h) | cell death ([3]; hFOB 1.19, 35 and 40 μM, 24, 48, 72 h) | % RCL ([3]; hFOB 1.19, 45 and 50 μM, time not stated) | time to reach maximum dissolution [4] | IC50 [5]
O=P(O)(O)C(O)(Cc1cccnc1)P(=O)(O)O [RISE, Monosodium risedronate hemipentahydrate] | 1 min | 100 ± 1% | 101% | 100 ± 2% | 100 ± 1% | 100% | 100 ± 1% | 100 ± 1% | 100 ± 1% | 99 ± 2% | 99 ± 1% | 96 ± 4% | 98 ± 1% | > 200 µM | > 200 µM | > 200 µM | no significant cell death | ~100% | 30 min | –
N#Cc1ccc(C(c2ccc(C#N)cc2)n2cncn2)cc1 [LET, letrozole] | – | – | – | – | – | – | – | – | – | – | – | – | – | – | – | – | – | – | – | > 200 µM
